Experimental findings from patent publication US8048825B2, “Haloalkylsulfonanilide derivatives or salt thereof, herbicide comprising the derivatives as active ingredient, and use of the herbicide” (Nihon Nohyaku Co., Ltd., priority 2006, dated 2011) are described below.

Common to all, as to format: in vivo
Test [1] deals with Scirpus juncoides. Kind of test: Herbicidal efficacy on paddy field weeds of pre-emergence stage (Pre), Test Example 1. The conditions noted are these: 1000 g/ha as active ingredient, examined after 21 days. An outline of the steps: (§1)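 Pre-emergence paddy test: 1000 g/ha active ingredient, formulated and water-diluted, dropped onto 5 cm floodwater one day after sowing both weeds in clay loam. After 21 days in greenhouse, inhibition relative to untreated control rated on 0 (0%) to 5 (100%) scale.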

Test [2] relates to Lindernia procumbens. Described as above. As to conditions: 1000 g/ha as active ingredient, examined after 21 days. The procedure, abridged:
as §1

The subject of test [3] is Scirpus juncoides. Kind of test: Herbicidal effect on paddy field weeds of post-emergence stage (Post), Test Example 2. The conditions noted are these: one-leaf stage, 1000 g/ha as active ingredient, examined after 21 days. An outline of the steps: (§2)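 Post-emergence paddy test: formulated compound added to 5 cm standing water at 1000 g/ha a.i. when weeds reached one-leaf stage in clay loam pots in greenhouse. Growth inhibition rated 21 days later versus untreated control on a 0 (0%) to 5 (100%) scale.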

For test [4], the system named is Lindernia procumbens. The test is described as above. As to conditions: one-leaf stage, 1000 g/ha as active ingredient, examined after 21 days. An outline of the steps:
as §2

The subject of the next test is Echinochloa crus-galli. The test is described as above. As to conditions: one-leaf stage, 1000 g/ha as active ingredient, examined after 21 days. An outline of the steps: as §2

As for `COC(=O)N(c1ccccc1CN1CCC(C)(c2c(F)cccc2F)OC1=O)S(=O)(=O)C(F)(F)F` (racemic) [Compound 1-440], in the test with Scirpus juncoides [1], the “Scirpus juncoides pre (herbicidal effect)” value (from here on “Scirpus juncoides pre”) is listed as 4 (90%-99% herbicidal effect, phytotoxicity). For the same compound, the “Lindernia procumbens pre (herbicidal effect)” value (“Lindernia procumbens pre” below) in the test on Lindernia procumbens [2] is 5 (100% herbicidal effect, phytotoxicity). For the same compound, the “Scirpus juncoides post (herbicidal effect)” value (from here on “Scirpus juncoides post”) in the test with Scirpus juncoides [3] was 4 (90%-99% herbicidal effect, phytotoxicity). The “Lindernia procumbens post (herbicidal effect)” value (“Lindernia procumbens post” for short) in the test on Lindernia procumbens [4] is 5 (100% herbicidal effect, phytotoxicity). For the same compound, the “Echinochloa crus-galli post (herbicidal effect)” value (“Echinochloa crus-galli post” below) in the test on Echinochloa crus-galli is listed as 4 (90%-99% herbicidal effect, phytotoxicity).

In the case of `CCOC(=O)N(c1ccccc1CN1CC(C)(C)C(c2ccccc2)OC1=O)S(=O)(=O)C(F)(F)F` (stereo not shown) [Compound 1-263], the “Scirpus juncoides pre” value with Scirpus juncoides [1] was 4 (90%-99% herbicidal effect, phytotoxicity). Also, the “Lindernia procumbens pre” value in the test with Lindernia procumbens [2] is reported as 5 (100% herbicidal effect, phytotoxicity). In addition, in the test with Scirpus juncoides [3], the “Scirpus juncoides post” value is reported as 4 (90%-99% herbicidal effect, phytotoxicity). In addition, in the test with Lindernia procumbens [4], the “Lindernia procumbens post” value is reported as 5 (100% herbicidal effect, phytotoxicity). The “Echinochloa crus-galli post” value in the test with Echinochloa crus-galli is 4 (90%-99% herbicidal effect, phytotoxicity).

As for `CCOC(=O)N(c1ccccc1CN1CCC(C)(c2ccccc2C)OC1=O)S(=O)(=O)C(F)(F)F` (stereo not shown) [Compound 1-406], in the test on Scirpus juncoides [1], the “Scirpus juncoides pre” value is given as 5 (100% herbicidal effect, phytotoxicity). Also, the “Lindernia procumbens pre” value with Lindernia procumbens [2] is listed as 5 (100% herbicidal effect, phytotoxicity). In addition, in the test on Scirpus juncoides [3], the “Scirpus juncoides post” value is on record as 4 (90%-99% herbicidal effect, phytotoxicity). For the same compound, the “Lindernia procumbens post” value in the test on Lindernia procumbens [4] is listed as 5 (100% herbicidal effect, phytotoxicity). The “Echinochloa crus-galli post” value in the test with Echinochloa crus-galli was 5 (100% herbicidal effect, phytotoxicity).

Consider `COCN(c1ccccc1CN1CCC(C)(C)OC1=O)S(=O)(=O)C(F)(F)F` [Compound 1-55], for which, in the test on Scirpus juncoides [1], the “Scirpus juncoides pre” value was 4 (90%-99% herbicidal effect, phytotoxicity). The “Lindernia procumbens pre” value with Lindernia procumbens [2] was 4 (90%-99% herbicidal effect, phytotoxicity). For the same compound, the “Scirpus juncoides post” value in the test on Scirpus juncoides [3] is on record as 4 (90%-99% herbicidal effect, phytotoxicity). Also, the “Lindernia procumbens post” value with Lindernia procumbens [4] is recorded as 4 (90%-99% herbicidal effect, phytotoxicity). The “Echinochloa crus-galli post” value in the test with Echinochloa crus-galli is given as 4 (90%-99% herbicidal effect, phytotoxicity).

Take `CCOC(=O)N(c1ccccc1CN1CCC(C)(c2ccccc2C(F)(F)F)OC1=O)S(=O)(=O)C(F)(F)F` (stereo not shown) [Compound 1-395]: the “Scirpus juncoides pre” value in the test with Scirpus juncoides [1] is given as 5 (100% herbicidal effect, phytotoxicity). Further, in the test on Lindernia procumbens [2], the “Lindernia procumbens pre” value is 5 (100% herbicidal effect, phytotoxicity). Further, the “Scirpus juncoides post” value in the test on Scirpus juncoides [3] is given as 4 (90%-99% herbicidal effect, phytotoxicity). Further, the “Lindernia procumbens post” value with Lindernia procumbens [4] is recorded as 5 (100% herbicidal effect, phytotoxicity). The “Echinochloa crus-galli post” value in the test on Echinochloa crus-galli is reported as 4 (90%-99% herbicidal effect, phytotoxicity).

In the case of `CC(C)(C)COC(=O)N(c1ccccc1CN1CCC(C)(C2CCC2)OC1=O)S(=O)(=O)C(F)(F)F` (stereo not shown) [Compound 1-388], the “Scirpus juncoides pre” value in the test on Scirpus juncoides [1] is on record as 5 (100% herbicidal effect, phytotoxicity). For the same compound, in the test on Lindernia procumbens [2], the “Lindernia procumbens pre” value is reported as 5 (100% herbicidal effect, phytotoxicity). Also, the “Scirpus juncoides post” value with Scirpus juncoides [3] is 4 (90%-99% herbicidal effect, phytotoxicity). Also, the “Lindernia procumbens post” value in the test with Lindernia procumbens [4] is given as 5 (100% herbicidal effect, phytotoxicity). The “Echinochloa crus-galli post” value in the test on Echinochloa crus-galli is 5 (100% herbicidal effect, phytotoxicity).

For `CCOC(=O)N(c1ccccc1CN1CCC(C)(C2CCC2)OC1=O)S(=O)(=O)C(F)(F)F` (stereo not shown) [Compound 1-384], the “Scirpus juncoides pre” value with Scirpus juncoides [1] is recorded as 5 (100% herbicidal effect, phytotoxicity). In addition, the “Lindernia procumbens pre” value in the test on Lindernia procumbens [2] was 5 (100% herbicidal effect, phytotoxicity). Moreover, the “Scirpus juncoides post” value with Scirpus juncoides [3] is 4 (90%-99% herbicidal effect, phytotoxicity). The “Lindernia procumbens post” value with Lindernia procumbens [4] is recorded as 5 (100% herbicidal effect, phytotoxicity). The “Echinochloa crus-galli post” value in the test with Echinochloa crus-galli is given as 4 (90%-99% herbicidal effect, phytotoxicity).

With `CC1(C)CCN(Cc2ccccc2NS(=O)(=O)C(F)(F)F)C(=S)O1` [Compound 1-58], the “Scirpus juncoides pre” value in the test on Scirpus juncoides [1] is on record as 4 (90%-99% herbicidal effect, phytotoxicity). Also, the “Lindernia procumbens pre” value in the test with Lindernia procumbens [2] is given as 4 (90%-99% herbicidal effect, phytotoxicity). The “Scirpus juncoides post” value in the test on Scirpus juncoides [3] is reported as 4 (90%-99% herbicidal effect, phytotoxicity). Besides, the “Lindernia procumbens post” value in the test on Lindernia procumbens [4] is recorded as 4 (90%-99% herbicidal effect, phytotoxicity). Moreover, in the test with Echinochloa crus-galli, the “Echinochloa crus-galli post” value is reported as 4 (90%-99% herbicidal effect, phytotoxicity).

As to `CCOC(=O)N(c1ccccc1CN1CCC(CC)(CC)OC1=O)S(=O)(=O)C(F)(F)F` [Compound 1-104], the “Scirpus juncoides pre” value in the test on Scirpus juncoides [1] was 4 (90%-99% herbicidal effect, phytotoxicity). For the same compound, in the test with Lindernia procumbens [2], the “Lindernia procumbens pre” value is 4 (90%-99% herbicidal effect, phytotoxicity). The “Scirpus juncoides post” value with Scirpus juncoides [3] is given as 4 (90%-99% herbicidal effect, phytotoxicity). Further, the “Lindernia procumbens post” value in the test on Lindernia procumbens [4] was 4 (90%-99% herbicidal effect, phytotoxicity). In the test on Echinochloa crus-galli, the “Echinochloa crus-galli post” value is listed as 4 (90%-99% herbicidal effect, phytotoxicity).

Regarding `CCOC(=O)N(c1ccccc1CN1CC(C)(C)COC1=O)S(=O)(=O)C(F)(F)F` [Compound 1-25], the “Scirpus juncoides pre” value with Scirpus juncoides [1] is listed as 4 (90%-99% herbicidal effect, phytotoxicity). The “Lindernia procumbens pre” value in the test on Lindernia procumbens [2] is 4 (90%-99% herbicidal effect, phytotoxicity). The “Scirpus juncoides post” value with Scirpus juncoides [3] is on record as 4 (90%-99% herbicidal effect, phytotoxicity). The “Lindernia procumbens post” value with Lindernia procumbens [4] is given as 4 (90%-99% herbicidal effect, phytotoxicity). In the test on Echinochloa crus-galli, the “Echinochloa crus-galli post” value is reported as 4 (90%-99% herbicidal effect, phytotoxicity).

Regarding `CCOC(=O)N(c1ccccc1CN1CCC(C)(C2(C)CC2)OC1=O)S(=O)(=O)C(F)(F)F` (stereo not shown) [Compound 1-373], the “Scirpus juncoides pre” value in the test with Scirpus juncoides [1] is given as 5 (100% herbicidal effect, phytotoxicity). Also, the “Lindernia procumbens pre” value in the test on Lindernia procumbens [2] is given as 5 (100% herbicidal effect, phytotoxicity). Also, in the test on Scirpus juncoides [3], the “Scirpus juncoides post” value is on record as 4 (90%-99% herbicidal effect, phytotoxicity). In the test on Lindernia procumbens [4], the “Lindernia procumbens post” value is on record as 5 (100% herbicidal effect, phytotoxicity). Besides, the “Echinochloa crus-galli post” value with Echinochloa crus-galli is on record as 4 (90%-99% herbicidal effect, phytotoxicity).

With `CCC1(C(F)(F)F)CCN(Cc2ccccc2N(C(=O)OCCCl)S(=O)(=O)C(F)(F)F)C(=O)O1` (stereo not shown) [Compound 1-415], in the test on Scirpus juncoides [1], the “Scirpus juncoides pre” value is reported as 5 (100% herbicidal effect, phytotoxicity). In the test on Lindernia procumbens [2], the “Lindernia procumbens pre” value is listed as 5 (100% herbicidal effect, phytotoxicity). Moreover, in the test on Scirpus juncoides [3], the “Scirpus juncoides post” value is 4 (90%-99% herbicidal effect, phytotoxicity). Also, the “Lindernia procumbens post” value in the test with Lindernia procumbens [4] is recorded as 5 (100% herbicidal effect, phytotoxicity). The “Echinochloa crus-galli post” value with Echinochloa crus-galli was 5 (100% herbicidal effect, phytotoxicity).

Consider `CCC1(C(F)(F)F)CCN(Cc2ccccc2NS(=O)(=O)C(F)(F)F)C(=O)O1` (stereo not shown) [Compound 1-91], for which, in the test on Scirpus juncoides [1], the “Scirpus juncoides pre” value is given as 4 (90%-99% herbicidal effect, phytotoxicity). Further, the “Lindernia procumbens pre” value in the test on Lindernia procumbens [2] is given as 5 (100% herbicidal effect, phytotoxicity). Further, in the test with Scirpus juncoides [3], the “Scirpus juncoides post” value is given as 4 (90%-99% herbicidal effect, phytotoxicity). For the same compound, the “Lindernia procumbens post” value in the test on Lindernia procumbens [4] is listed as 5 (100% herbicidal effect, phytotoxicity). The “Echinochloa crus-galli post” value in the test on Echinochloa crus-galli is 4 (90%-99% herbicidal effect, phytotoxicity).

For `CC1(C2(C)CCN(Cc3ccccc3NS(=O)(=O)C(F)(F)F)C(=O)O2)CC1` (stereo not shown) [Compound 1-371], in the test on Scirpus juncoides [1], the “Scirpus juncoides pre” value is given as 5 (100% herbicidal effect, phytotoxicity). In addition, the “Lindernia procumbens pre” value with Lindernia procumbens [2] is given as 5 (100% herbicidal effect, phytotoxicity). Also, in the test with Scirpus juncoides [3], the “Scirpus juncoides post” value is reported as 4 (90%-99% herbicidal effect, phytotoxicity). Also, the “Lindernia procumbens post” value in the test with Lindernia procumbens [4] is listed as 5 (100% herbicidal effect, phytotoxicity). Besides, in the test with Echinochloa crus-galli, the “Echinochloa crus-galli post” value is 4 (90%-99% herbicidal effect, phytotoxicity).

`CC1(C2CCC2)CCN(Cc2ccccc2NS(=O)(=O)C(F)(F)F)C(=O)O1` (stereo not shown) [Compound 1-382]: the “Scirpus juncoides pre” value in the test with Scirpus juncoides [1] is given as 5 (100% herbicidal effect, phytotoxicity). The “Lindernia procumbens pre” value in the test with Lindernia procumbens [2] is on record as 5 (100% herbicidal effect, phytotoxicity). Besides, in the test with Scirpus juncoides [3], the “Scirpus juncoides post” value is 4 (90%-99% herbicidal effect, phytotoxicity). Moreover, the “Lindernia procumbens post” value with Lindernia procumbens [4] is listed as 5 (100% herbicidal effect, phytotoxicity). Also, in the test on Echinochloa crus-galli, the “Echinochloa crus-galli post” value is 4 (90%-99% herbicidal effect, phytotoxicity).

Regarding `CC1(C)CCN(Cc2ccccc2N(C(=O)Oc2ccccc2)S(=O)(=O)C(F)(F)F)C(=O)O1` [Compound 1-506], the “Scirpus juncoides pre” value in the test with Scirpus juncoides [1] was 5 (100% herbicidal effect, phytotoxicity). The “Lindernia procumbens pre” value with Lindernia procumbens [2] was 5 (100% herbicidal effect, phytotoxicity). In the test on Scirpus juncoides [3], the “Scirpus juncoides post” value is given as 4 (90%-99% herbicidal effect, phytotoxicity). Besides, the “Lindernia procumbens post” value with Lindernia procumbens [4] is given as 5 (100% herbicidal effect, phytotoxicity). For the same compound, in the test on Echinochloa crus-galli, the “Echinochloa crus-galli post” value is 4 (90%-99% herbicidal effect, phytotoxicity).

Take `CCCOC(=O)N(c1ccccc1CN1CC(C)(C)COC1=O)S(=O)(=O)C(F)(F)F` [Compound 1-26]: the “Scirpus juncoides pre” value in the test with Scirpus juncoides [1] is 4 (90%-99% herbicidal effect, phytotoxicity). Moreover, the “Lindernia procumbens pre” value with Lindernia procumbens [2] is 4 (90%-99% herbicidal effect, phytotoxicity). In addition, the “Scirpus juncoides post” value in the test with Scirpus juncoides [3] is reported as 4 (90%-99% herbicidal effect, phytotoxicity). For the same compound, the “Lindernia procumbens post” value in the test with Lindernia procumbens [4] is reported as 4 (90%-99% herbicidal effect, phytotoxicity). Further, in the test on Echinochloa crus-galli, the “Echinochloa crus-galli post” value was 4 (90%-99% herbicidal effect, phytotoxicity).
